Experiments:
[1] = test system: Huntington's disease patient iPSCs (ND50036); assay: iPSC viability at IC20; format: cell-based, human; conditions: at the concentration of IC20
[2] = test system: mutant HTT; assay: Mutant HTT assay in lymphoblastoid cells (LBC), Western blot; format: cell-based, human; conditions: read-out: LBC IC20 (nM) mHTT, 3 days compound treatment
Method: (§1) B. Mutant and Wild-Type HTT Assay in Lymphoblastoid Cells (LBC)
(§2) a. Cell Culturing and Compound Treatment
(§3) Lymphoblastoid cells derived from a Huntington's disease patient with 250 CAG repeats in the mutant HTT allele (GM14044 from Coriell Institute) were cultured in RPMI 1640 (Corning Cellgro, 10-040-CV) containing fetal bovine serum (Atlanta Biologicals, S11150). 4×10^5 cells were seeded on a 24-well plate and incubated with testing compound for 3 days. The cell suspension was then transferred to a 1.5 ml Eppendorf tube. Cells were collected by centrifugation and washed once with PBS. After all liquid was removed, the cell pellet was placed at −80° C. for at least 10 minutes. Lysis buffer [30 mM Tris-HCl (pH 8.0), 5 mM NaCl, 0.1% Triton X-100] with the proteinase inhibitor cocktail (P8340 from Sigma-Aldrich) was then added to the cells. Following centrifugation (14 k rpm for 15 min at 4° C.), the supernatant was collected. The protein concentrations were determined by BCA assay (Pierce, ThermoFisher).
(§4) Equal amounts of protein were loaded onto 4-12% gel (Invitrogen, WG1403A). After electrophoresis, the gels were transferred to nitrocellulose membranes by wet transfer at 72V for 3 hrs. […] The protein levels of mutant HTT, wild-type HTT, TBP, and tubulin were determined by immunoblotting with anti-polyQ specific antibody (clone MW1), anti-Huntingtin antibody (Abcam, ab45169), anti-TBP antibody (Sigma, T1827) and anti-alpha tubulin antibody (Sigma, T9026). Blots were imaged on a Li-Cor Odyssey infrared imager. The band intensities were determined by Li-Cor Odyssey software.

[3] = test system: mutant HTT; assay: Mutant HTT assay in induced pluripotent stem cells (iPSC); format: cell-based, human; conditions: HD patient iPSCs, one day incubation, read-out: iPSC IC20 (nM) mHTT
Method: C. Mutant HTT Assay in Induced Pluripotent Stem Cells (iPSC) a. Cell Culturing and Compound Treatment
Huntington's disease patient iPSCs (ND50036 from NINDS) were detached into single cells by Accutase (25058CI from Corning), counted and plated on a 24-well plate coated with Matrigel (354277 from Corning) at density of 7,000 cells/well. After 48 hrs, compounds were added to the cell culture medium mTeSR1 (85850 from StemCell Technologies) and the cells were incubated for one day. The medium was then removed, and the cells were washed with PBS. After all liquid was removed, the plate was placed at −80° C. overnight. Lysis buffer [30 mM Tris-HCl (pH 8.0), 5 mM NaCl, 0.1% Triton X-100] with the complete proteinase inhibitor cocktail (5892791001 from Sigma-Aldrich) was then added to the cells. Cell samples were lysed on an orbital plate shaker at 4° C. at 700 rpm for 30 min. The supernatants from spinning (14 k rpm for 10 min) were collected. The protein concentrations were determined by BCA assay (23225 from Pierce, ThermoFisher). […]
b. Detection of Mutant HTT Protein
Equal amounts of protein lysate collected from each sample were added to a 96-well plate that had been coated with a human HTT specific monoclonal antibody. After washing away any unbound substances, a biotinylated anti-human mutant HTT specific detection antibody was added. Streptavidin-horseradish peroxidase was subsequently added, followed by TMB Substrate Solution, which yielded a blue product that turns yellow when the Stop Solution was added. The intensity of the color measured was in proportion to the amount of mutant HTT bound in the initial step. The mutant HTT values are then interpolated from a standard curve.

[4] = test system: Lymphoblastoid cells (GM14044); assay: LBC cell viability (Cell Titer-Glo); format: cell-based, human; conditions: at the concentration of IC20, 3-day compound treatment
Method: Cell viability was determined by Cell Titer-Glo reagent (Promega, PRG9243). After 3-day compound treatment, 15 μl of cell suspension was taken out from plate and incubated with 10 μl of CTG reagent. The values of reaction mixture were detected by Tecan.

[5] = test system: wild-type HTT; assay: Wild-type HTT assay in lymphoblastoid cells (LBC), Western blot; format: cell-based, human; conditions: 3 days compound treatment, read-out: LBC IC20 (nM) wtHTT
Method: as §1, §2, §3, §4

[6] = test system: M2-8 cells; assay: M2-8 Cell viability Assay; format: cell-based; conditions: at the concentration of 1000 nM
[7] = biological target: T1, interaction between Supt4h and NGN (subunit of Supt5h) (Homo sapiens, UniProt O00267+P63272); assay: Split Gaussia luciferase complementation assay (M2-8 Luciferase); format: cell-based; conditions: M2-8 cells
T1 construct: expressed in transfected cells
Method: A. Split Gaussia Luciferase Complementation Assay […]
i: pNBR-X1-Supt4-Gluc1 and pNEBR-X1-NGN-Gluc2
The HA-Supt4h and Flag-NGN fragments are amplified by PCR using the plasmid pHA-Supt4h-YC and pFlag-NGN-YN and sub-cloned individually into pcDNA3.1-Gluc1 and pcDNA3.1-Gluc2 (described in “A highly sensitive protein-protein interaction assay based on Gaussia luciferase” published at Nat Methods. 2006 December; 3(12):977-9. Epub 2006 Nov. 12). Then HA-Supt4h-Gluc1 and Flag-NGN-Gluc2 are amplified by PCR and inserted to pNEBR-X1-Hygro (New England BioLabs), which contain RheoSwitch responsive element under the control of RheoSwitch ligand. […]
ii: pNEBR-X1-Supt4h-G1-NGN-G2
PCR products containing the sequence from 5XRE to polyA in pNEBR-X1-NGN-G2 are inserted to pNEBR-X1-Supt4h-G1 at Pcil site to generate Supt4h-G1 and NGN-G2 bidirectional under their own RheoSwitch responsive element and polyA in the same plasmid. […]
b. Stable Cloned Cell Line i: 293-R1 is a cloned cell line which is engineered to constitutively express RSL1 receptor/activator by transfecting HEK 293 cells with pNEBR-R1 plasmid (New England BioLabs) and selected with blasticidin. […]
ii: M2-8 is a cloned 293-R1 cell which can inducibly express pNEBR-X1-Supt4h-G1-NGN-G2 by addition of RSL1. Two point mutations ([…] and M110I) are introduced to the GL1 and GL2 for better stability according to “A high-throughput cell-based Gaussia luciferase reporter assay for identifying modulators of fibulin-3 secretion” published in J Biomol Screen. 2013 July; 18(6):647-58. The cell line is selected by hygromycin. […]
c. Cell Culture and Transfection Condition
All the HEK-293 cells and derivative clones are maintained in DMEM containing 10% FBS plus corresponding antibiotics (250 μg/ml hygromycin B, 10 μg/ml blasticidin or both) at 37° C., 5% CO2. All the transfections are done by using Lipofectamine 2000 (Invitrogen) according to the manufacturer's instructions. […]
d. Bioluminescence Assay from Cell Lysates
Plasmids harboring the Gluc1 and Gluc2 are co-transfected in a 1:1 ratio into 293-R1 cells plated on tissue culture treated 24-well plates using Lipofectamine 2000 according to the manufacturer's instructions. For stable M2-8 cells, the cells are directly plated into 96-well or 384-well white plates. Twenty-four hours later, RheoSwitch ligand with or without test compound is added to the cells for induction/drug treatment. After 24 hr, the cells are washed with PBS and the plate was stored at −20° C. overnight. Lysis buffer [30 mM Tris-HCl (pH 8.0) 5 mM NaCl, 0.1% Triton X-100] with 10 μg/ml native coelenterazine (Nanolight Technology) is then added to the cells at room temperature for one hour in the dark. After shaking for about 1 min, 40 μl of cell lysate are transferred to a white 96-well plate. For M2-8 in white micro plate, no transfer is needed. Signal intensities (integrated 100 ms) were read on Tecan Infinite M200 or M1000.
The split Gaussia luciferase complementation assay measures the interaction between Sup4h and NGN. NGN is the subunit of Supt5h that binds to Supt4h.

Row | Structure (SMILES) | iPSC viability at IC20 [1] | IC20 [2] [nM] | IC20 ([3]; class symbols) [nM] | LBC viability at IC20 [4] | IC20 [5] [nM] | M2-8 Cell viability [6] | IC50 [7] [nM] | IC20 ([3]; numeric bounds) [nM]
1 | C[C@@H](N[C@@H]1CCCc2c1[nH]c1ccc(Br)cc21)c1ccccc1 (single isomer, unassigned) [Compound 13] | + (cell viability is greater than 75% at the concentration of IC20) | 101 to 300 | < 100 | * (cell viability is greater than 60% at the concentration of IC20) | > 1000 | + (cell viability is greater than 50% at the concentration of 1000 nM) | ≤ 100 | 
2 | CC(C)(O)c1cccc(CN[C@@H]2CCCc3c2[nH]c2ccc(Br)cc32)c1 (single isomer, unassigned) [Compound 58] |  | 101 to 300 |  | * (cell viability is greater than 60% at the concentration of IC20) | > 1000 | + (cell viability is greater than 50% at the concentration of 1000 nM) | 101 to 300 | > 100
3 | COC(=O)c1cccc(CN[C@@H]2CCCc3c2[nH]c2ccc(Br)cc32)c1 (single isomer, unassigned) [Compound 59] |  | 101 to 300 |  | * (cell viability is greater than 60% at the concentration of IC20) | > 1000 | + (cell viability is greater than 50% at the concentration of 1000 nM) | 101 to 300 | > 100
4 | C#Cc1ccc2[nH]c3c(c2c1)CCC[C@H]3NCc1ccccc1 [Compound 5, (R)—N-benzyl-6-ethynyl-2,3,4,9-tetrahydro-1H-carbazol-1-amine] |  | < 100 |  | * (cell viability is greater than 60% at the concentration of IC20) | > 1000 | + (cell viability is greater than 50% at the concentration of 1000 nM) | ≤ 100 | > 100
5 | Brc1ccc2[nH]c3c(c2c1)CCC[C@H]3NCc1cccnc1 [Compound 32, (R)-6-bromo-N-(pyridin-3-ylmethyl)-2,3,4,9-tetrahydro-1H-carbazol-1-amine] |  | < 100 |  | * (cell viability is greater than 60% at the concentration of IC20) | > 1000 | + (cell viability is greater than 50% at the concentration of 1000 nM) | 101 to 300 | > 100
6 | Brc1ccc2[nH]c3c(c2c1)CCC[C@H]3NCc1ccccn1 [Compound 33, (R)-6-bromo-N-(pyridin-2-ylmethyl)-2,3,4,9-tetrahydro-1H-carbazol-1-amine] |  | 301 to 1000 |  | * (cell viability is greater than 60% at the concentration of IC20) | > 1000 | + (cell viability is greater than 50% at the concentration of 1000 nM) | 101 to 300 | > 100
7 | Brc1ccc2[nH]c3c(c2c1)CCC[C@H]3NCc1cccc(I)c1 [Compound 41, (R)-6-bromo-N-(3-iodobenzyl)-2,3,4,9-tetrahydro-1H-carbazol-1-amine] |  | 101 to 300 |  | * (cell viability is greater than 60% at the concentration of IC20) | > 1000 | + (cell viability is greater than 50% at the concentration of 1000 nM) | ≤ 100 | > 100
8 | C=C(C)c1ccc(CN[C@@H]2CCCc3c2[nH]c2ccc(Br)cc32)s1 [Compound 68] |  | 101 to 300 |  | * (cell viability is greater than 60% at the concentration of IC20) | > 1000 | + (cell viability is greater than 50% at the concentration of 1000 nM) | ≤ 100 | > 100
9 | Brc1ccc2[nH]c3c(c2n1)CCC[C@H]3NCc1ccccc1 [Compound 69] | + (cell viability is greater than 75% at the concentration of IC20) |  | < 100 |  |  | + (cell viability is greater than 50% at the concentration of 1000 nM) | ≤ 100 | 
10 | OC1(c2ccc(CN[C@@H]3CCCc4c3[nH]c3ccc(Br)nc43)s2)CC1 [Compound 70] | + (cell viability is greater than 75% at the concentration of IC20) |  | < 100 |  |  | + (cell viability is greater than 50% at the concentration of 1000 nM) | ≤ 100 | 
11 | OC1(c2ccc(CN[C@@H]3CCCc4c3[nH]c3ccc(Br)nc43)cc2)CC1 [Compound 71] | + (cell viability is greater than 75% at the concentration of IC20) |  | < 100 |  |  | + (cell viability is greater than 50% at the concentration of 1000 nM) | ≤ 100 | 
